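A five-concentration, 48-hour dose response in 96-well plates underlies each endpoint, interpolated linearly between surrounding concentrations. GI50 is the concentration that inhibits growth by half.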 Calls of active or inactive are those of the source. Rule as the data show it: active = GI50 up to about 1.1 µM and inactive = higher.
Experiments:
Assay in all cases: growth of human tumour cells (NCI), 48 h
[1] = system: 786-0
[2] = system: NCI/ADR-RES
[3] = system: TK-10
[4] = system: SF-539
[5] = system: BT-549
[6] = system: SF-295
[7] = system: MDA-MB-435
[8] = system: HCT-116
[9] = system: PC-3
[10] = system: RPMI-8226
[11] = system: COLO 205
[12] = system: SK-OV-3
[13] = system: SK-MEL-2
[14] = system: RXF 393
[15] = system: NCI-H522
[16] = system: NCI-H460
[17] = system: OVCAR-8
[18] = system: UACC-257
[19] = system: MCF7
[20] = system: DU-145

Row | SMILES | GI50 [1] | GI50 [2] | GI50 [3] | GI50 [4] | GI50 [5] | GI50 [6] | GI50 [7] | GI50 [8] | GI50 [9] | GI50 [10] | GI50 [11] | GI50 [12] | GI50 [13] | GI50 [14] | GI50 [15] | GI50 [16] | GI50 [17] | GI50 [18] | GI50 [19] | GI50 [20]
1 | N#Cc1c(-c2ccccc2)c(/C=N/c2ccc(Cl)cc2)c(=O)n2c1[nH]c1ccccc12 | > 100 µM (inactive) | > 100 µM (inactive) | > 100 µM (inactive) | > 100 µM (inactive) | > 100 µM (inactive) | 50.5 µM (inactive) | > 100 µM (inactive) | 0.424 µM (active) | > 100 µM (inactive) | 4.43 µM (inactive) | 83 µM (inactive) | > 100 µM (inactive) | > 100 µM (inactive) | > 100 µM (inactive) | 61.2 µM (inactive) | > 100 µM (inactive) | > 100 µM (inactive) | > 100 µM (inactive) | > 100 µM (inactive) | –
2 | NNC(=O)c1nnn(CCc2ccccc2)c1C(=O)NN | > 100 µM (inactive) | > 100 µM (inactive) | 68.2 µM (inactive) | – | > 100 µM (inactive) | > 100 µM (inactive) | > 100 µM (inactive) | > 100 µM (inactive) | > 100 µM (inactive) | > 100 µM (inactive) | > 100 µM (inactive) | – | > 100 µM (inactive) | – | – | > 100 µM (inactive) | > 100 µM (inactive) | > 100 µM (inactive) | > 100 µM (inactive) | > 100 µM (inactive)
3 | CC(/C=N/N=C1NCCCN1)=N\N=C1NCCCN1 | > 100 µM (inactive) | > 100 µM (inactive) | > 100 µM (inactive) | > 100 µM (inactive) | > 100 µM (inactive) | > 100 µM (inactive) | > 100 µM (inactive) | > 100 µM (inactive) | > 100 µM (inactive) | > 100 µM (inactive) | > 100 µM (inactive) | > 100 µM (inactive) | – | > 100 µM (inactive) | > 100 µM (inactive) | > 100 µM (inactive) | > 100 µM (inactive) | > 100 µM (inactive) | > 100 µM (inactive) | –
4 | O=C1C(Br)=C(C2=CC(=P(c3ccccc3)(c3ccccc3)c3ccccc3)C=C2)C(=O)C(Br)=C1C1=CC(=P(c2ccccc2)(c2ccccc2)c2ccccc2)C=C1 | 37.9 µM (inactive) | > 100 µM (inactive) | 30.3 µM (inactive) | > 100 µM (inactive) | > 100 µM (inactive) | > 100 µM (inactive) | – | 99.1 µM (inactive) | > 100 µM (inactive) | > 100 µM (inactive) | > 100 µM (inactive) | > 100 µM (inactive) | > 100 µM (inactive) | > 100 µM (inactive) | 19.9 µM (inactive) | – | > 100 µM (inactive) | 33.3 µM (inactive) | > 100 µM (inactive) | > 100 µM (inactive)
5 | CC(C)(NC(=O)OCc1ccccc1)C(=O)OC(=O)C(C)(C)NC(=O)OCc1ccccc1 | > 100 µM (inactive) | > 100 µM (inactive) | – | > 100 µM (inactive) | > 100 µM (inactive) | > 100 µM (inactive) | > 100 µM (inactive) | > 100 µM (inactive) | > 100 µM (inactive) | > 100 µM (inactive) | > 100 µM (inactive) | 54.2 µM (inactive) | > 100 µM (inactive) | – | > 100 µM (inactive) | > 100 µM (inactive) | > 100 µM (inactive) | – | > 100 µM (inactive) | > 10 µM (inactive)
6 | COc1ccc(C(O)c2ccc3c(c2)OCO3)cc1 (stereo not given) | > 100 µM (inactive) | 65.6 µM (inactive) | > 100 µM (inactive) | > 100 µM (inactive) | > 100 µM (inactive) | > 100 µM (inactive) | > 100 µM (inactive) | > 100 µM (inactive) | > 100 µM (inactive) | – | > 100 µM (inactive) | > 100 µM (inactive) | – | > 100 µM (inactive) | > 100 µM (inactive) | > 100 µM (inactive) | > 100 µM (inactive) | > 100 µM (inactive) | > 100 µM (inactive) | > 100 µM (inactive)
7 | CC(=O)OCc1cc(OC(C)=O)c2cc3c(OC(C)=O)cccc3c(OC(C)=O)c2c1 | 13 µM (inactive) | 17.2 µM (inactive) | 12.7 µM (inactive) | – | 20.1 µM (inactive) | 13.6 µM (inactive) | 17.7 µM (inactive) | 19.7 µM (inactive) | 16.5 µM (inactive) | 11.2 µM (inactive) | 6.67 µM (inactive) | 18.5 µM (inactive) | – | – | – | 5.65 µM (inactive) | 13.3 µM (inactive) | 22 µM (inactive) | 12.8 µM (inactive) | 16.7 µM (inactive)
8 | Cc1cc(-c2c(F)cc3c4nn([C@H]5CC[C@@H](N(C)C)CC5)c(=O)c-4cn(C4CC4)c3c2F)cc(C)n1 | 0.133 µM (active) | – | 0.519 µM (active) | 0.177 µM (active) | 0.479 µM (active) | 0.169 µM (active) | – | 0.16 µM (active) | 1.56 µM (inactive) | 1.11 µM (active) | 0.208 µM (active) | 0.183 µM (active) | 0.82 µM (active) | 0.43 µM (active) | 0.169 µM (active) | < 0.0224 µM (active) | 0.221 µM (active) | 1.25 µM (inactive) | 0.0728 µM (active) | 0.416 µM (active)
9 | COc1ccccc1C1SCC(=O)N1c1ccc(-n2c(-c3ccccc3)nc3ccccc3c2=O)cc1 (stereo not given) | > 100 µM (inactive) | 19.3 µM (inactive) | > 100 µM (inactive) | > 100 µM (inactive) | > 100 µM (inactive) | 75.5 µM (inactive) | 53.8 µM (inactive) | 57.1 µM (inactive) | 80.4 µM (inactive) | > 100 µM (inactive) | > 100 µM (inactive) | > 100 µM (inactive) | > 100 µM (inactive) | – | 40.3 µM (inactive) | 40.7 µM (inactive) | 60.4 µM (inactive) | > 100 µM (inactive) | 39.1 µM (inactive) | 52.5 µM (inactive)
10 | CN(C)CCn1c2c(c3ccccc31)CCc1ccccc1-2 | 14.8 µM (inactive) | 15.6 µM (inactive) | 16.7 µM (inactive) | 13.4 µM (inactive) | 14.5 µM (inactive) | 16.9 µM (inactive) | 17.4 µM (inactive) | 12 µM (inactive) | 11.4 µM (inactive) | 6.49 µM (inactive) | 11.3 µM (inactive) | 18.7 µM (inactive) | 15.3 µM (inactive) | – | 15.9 µM (inactive) | 14.4 µM (inactive) | 16 µM (inactive) | 14.6 µM (inactive) | 16.8 µM (inactive) | 16.1 µM (inactive)
11 | O=C(COc1ccc(OCC(=O)N/N=C/c2ccc(-c3ccc(Cl)cc3Cl)o2)c(Cl)c1)N/N=C/c1ccc(-c2ccc(Cl)cc2Cl)o1 | 94.4 µM (inactive) | 12.3 µM (inactive) | > 100 µM (inactive) | – | 83.9 µM (inactive) | 32.2 µM (inactive) | 24.1 µM (inactive) | > 100 µM (inactive) | 33.7 µM (inactive) | 12.6 µM (inactive) | 0.942 µM (active) | – | 17.1 µM (inactive) | 33.6 µM (inactive) | 81.8 µM (inactive) | > 100 µM (inactive) | 55.3 µM (inactive) | > 100 µM (inactive) | 41.8 µM (inactive) | > 100 µM (inactive)
12 | Cc1cc2c(cc1N)C(C)C1(CCC(=O)N2Cc2ccccc2)OCCO1 (stereo not given) | > 100 µM (inactive) | > 100 µM (inactive) | > 100 µM (inactive) | > 100 µM (inactive) | > 100 µM (inactive) | > 100 µM (inactive) | > 100 µM (inactive) | > 100 µM (inactive) | > 100 µM (inactive) | 57.4 µM (inactive) | – | > 100 µM (inactive) | > 100 µM (inactive) | – | > 100 µM (inactive) | > 100 µM (inactive) | > 100 µM (inactive) | > 100 µM (inactive) | > 100 µM (inactive) | > 100 µM (inactive)
13 | COc1ccc(/N=N/C(=O)NC(CC(C)C)C(=O)NC(Cc2ccccc2)C(=O)O)cc1 (stereo not given) | > 100 µM (inactive) | > 100 µM (inactive) | > 100 µM (inactive) | 0.31 µM (active) | > 100 µM (inactive) | 1.62 µM (inactive) | 0.705 µM (active) | 32.4 µM (inactive) | 0.463 µM (active) | 2.28 µM (inactive) | 1.71 µM (inactive) | – | – | > 100 µM (inactive) | 6.24 µM (inactive) | 3.78 µM (inactive) | > 100 µM (inactive) | 3.41 µM (inactive) | 18.3 µM (inactive) | 0.634 µM (active)
14 | COc1ccc(/N=N/C(=O)NC(Cc2ccccc2)C(=O)O)cc1 (stereo not given) | > 100 µM (inactive) | > 100 µM (inactive) | > 100 µM (inactive) | > 100 µM (inactive) | > 100 µM (inactive) | > 100 µM (inactive) | > 100 µM (inactive) | > 100 µM (inactive) | 95.7 µM (inactive) | > 100 µM (inactive) | > 100 µM (inactive) | – | > 100 µM (inactive) | > 100 µM (inactive) | > 100 µM (inactive) | > 100 µM (inactive) | > 100 µM (inactive) | > 100 µM (inactive) | > 100 µM (inactive) | > 100 µM (inactive)
15 | CC1(C)CC2=NC(SSC3=C(C#N)C(c4ccc(Br)cc4)C4=C(O)CC(C)(C)CC4=N3)=C(C#N)C(c3ccc(Br)cc3)C2=C(O)C1 (stereo not given) | > 100 µM (inactive) | > 100 µM (inactive) | > 100 µM (inactive) | > 100 µM (inactive) | > 100 µM (inactive) | > 100 µM (inactive) | > 100 µM (inactive) | > 100 µM (inactive) | > 100 µM (inactive) | 67.8 µM (inactive) | > 100 µM (inactive) | > 100 µM (inactive) | > 100 µM (inactive) | > 100 µM (inactive) | 57.7 µM (inactive) | > 100 µM (inactive) | > 100 µM (inactive) | > 100 µM (inactive) | – | > 100 µM (inactive)

Reference: ChEMBL document CHEMBL1201862, “PubChem BioAssay data set” (2004)
